The record followed here is US6919309B2, “Methods and compositions for inhibiting angiogenesis” (Northwestern University, priority 1997, dated 2005).

For test [1], the system named is human dermal microvascular endothelial cells. The test is described as follows: Endothelial cell migration assay (modified Boyden chamber), human dermal microvascular endothelial cells. In kind it is cell-based. The following applies: VEGF 200 pg/ml gradient; FIG. 7. As for the experimental part: (§1) The cells were plated on gelatinized Nucleopore membranes (5 μm pores for bovine capillary cells and 8 μm pores for other cells) in an inverted modified Boyden chamber. After two hours, the chamber was reinverted and test substances added to the top wells of each. Specifically, populations were exposed to either culture medium alone (control), 10 ng/ml bFGF, 2 nM PEDF (full length PEDF), or both 10 ng/ml bFGF (basic fibroblast growth factor) and 10 nM PEDF. The cells were then permitted to migrate for 3-4 hours. Following this, the membranes were fixed and stained, and the number of cells that had migrated were counted.
Additional truncated peptides derived from PEDF were tested for efficacy in the endothelial cell migration assay using human dermal microvascular endothelial cells (Clonetics, Cell Systems) at passage 9 in a modified Boyden Chamber, as described above, and the results are shown in FIG. 7. In FIG. 7A, the cells were exposed to the gradient of VEGF in the presence of purified recombinant PEDF (rPEDF), bacterially produced PEDF (BH) or PEDF peptides containing only amino acid residues 78-121 (44-mer) and 44-77 (34-mer) referring to SEQ ID NO:1. Neutralizing antibodies were added where shown to verify if the anti-angiogenic effect is specific to PEDF peptides and not due to contamination. Both full length PEDF preparations were used at 25 nM, neutralizing polyclonal antiserum against PEDF was used at 1:200 dilution, recombinant human VEGF (R&D Systems) at 200 pg/ml. In FIG. 7B, the cells were exposed to the gradient of VEGF in the presence of increasing concentrations of 34-mer and 44-mer peptides. The antiserum used in this experiment was not affinity purified, whereas the antiserum used in all other experiments presented herein was affinity purified.

The subject of test [2] is bovine adrenal capillary endothelial cells. The test is described as follows: Endothelial cell migration assay (modified Boyden chamber), bovine adrenal capillary endothelial cells. In kind it is cell-based. The following applies: migration towards bFGF; FIGS. 4 and 5. As for the experimental part: as §1
The amount of a given factor necessary to achieve 50% of migration was determined and is reported here as ED50.
In particular, aFGF was employed at a concentration of 50 ng/ml, bFGF was employed at a concentration of 10 ng/ml, IL-8 was employed at a concentration of 40 ng/ml, PDGF was employed at a concentration of 250 pg/ml, and VEGF was employed at a concentration of 100 pg/ml.
In studies aimed at identifying antiangiogenic factors in the eye that might be regulated by the retinoblastoma tumor suppressor gene (Rb), media was fractionated where the media was previously conditioned by a retinoblastoma cell line that had been infected with a retrovirus expressing the wild-type Rb gene, WERI-Rb-27R. (Xu et al., 1991, Cancer Res. 51:4481). […] PEDF was purified from WERI-Rb-27R serum-free conditioned media by sequential steps consisting of dialysis (molecular mass cutoff, 30 kD) against distilled water, 60 to 95% ammonium sulfate precipitation, step elution from lentil lectin Sepharose 4B (Pharmacia) with 0.5 M α-methyl-D-mannopyranoside, and elution from a HiTrap heparin Sepharose column (Pharmacia) with increasing NACl gradient. (Xu, et al., 1991, Cancer Res. 51:4481). […] Migration assays were performed in quadruplicate for each sample with bovine adrenal capillary endothelial cells or human dermal microvascular endothelial cells (Clonetics, San Diego, Calif.) as described. (Polverini, et al., 1991, Methods Enzymol. 198:440). To combine multiple experiments, background migration (Bkgd) was first subtracted toward vehicle (0.1% bovine serum albumin) and them normalized data by setting maximum migration toward inducer alone to 100%. All experiments were repeated two to five times. Statistics were performed on raw data before normalization with the Student's t test. Standard errors were converted to percentages. […] Single-letter abbreviations for the amino acid residues are as follows: A, Ala; D, Asp; E. Glu; F. Phe; G, Gly; I, Ile; L, Leu; M, Met; P, Pro; Q, Gln; R, Arg; S, Ser; T, Thr; V, Val; X, any amino acid; and Y, Tyr.

Take “44 amino acid peptide: PEDF peptide containing only amino acid residues 78-121 of SEQ ID NO:1 (VLLSPLSVATALSALSLGADERTESIIHRALYYDLISSPDIHGT; listed as Homo Sapiens)”: in test [1], the “anti-angiogenic activity (block of migration towards VEGF)” value was “not active as an anti-angiogenic agent”.
The same measure, in the same setting: the value for “MQALVLLLCIGALLGHSSCQNPASPPEEGSPDPDSTGALVEEEDPFFKVPVNKLAAAVSNFGYDLYRVRSSMSPTTNVLLSPLSVATALSALSLGADERTESIIHRALYYDLISSPDIHGTYKELLDTVTAPQKNLKSASRIVFEKKLRIKSSFVAPLEKSYGTRPRVLTGNPRLDLQEINNWVQAQMKGKLARSTKEIPDEISILLLGVAHFKGQWVTKFDSRKTSLEDFYLDEERTVRVPMMSDPKAVLRYGLDSDLSCKIAQLPLTGSMSIIFFLPLKVTQNLTLIEESLTSEFIHDIDRELKTVQAVLTVPKLKLSYEGEVTKSLQEMKLQSLFDSPDFSKITGKPIKLTQVEHRAGFEWNEDGAGTTPSPGLQPAHLTFPLDYHLNQPFIFVLRDTDTGALLFIGKILDPRGP [34 amino acid peptide]” was “active as an anti-angiogenic agent”.

B1: truncated peptide: trypsin-truncated PEDF missing the approximately 3-5 kDa carboxy-terminal portion (protein, listed as Homo Sapiens)
chain: NPASPPEEGSPDPDSTGALVEEEDPFFKVPVNKLAAAVSNFGYDLYRVRSSMSPTTNVLLSPLSVATALSALSLGADERTESIIHRALYYDLISSPDIHGTYKELLDTVTAPQKNLKSASRIVFEKKLRIKSSFVAPLEKSYGTRPRVLTGNPRLDLQEINNWVQAQMKGKLARSTKEIPDEISILLLGVAHFKGQWVTKFDSRKTSLEDFYLDEERTVRVPMMSDPKAVLRYGLDSDLSCKIAQLPLTGSMSIIFFLPLKVTQNLTLIEESLTSEFIHDIDRELKTVQAVLTVPKLKLSYEGEVTKSLQEMKLQSLFDSPDFSKITGKPIKLTQVEHRAGFEWNEDGAGTTPSPGLQPAHL
Turning to B1, the “potency at inhibiting endothelial cell migration, dose response” value in test [2] is “similarly potent at inhibiting endothelial cell migration”.
